Measurements: ChEMBL document CHEMBL1201862, “PubChem BioAssay data set” (2004)
The source made the active and inactive calls.

What was measured:
[1] = target: Luciferin 4-monooxygenase (Photinus pyralis, UniProt P08659); assay: firefly luciferase enzyme inhibitors, dose response, biochemical, luminescence (AID 1891)
[2] = Luminescence Cell-Based Dose Confirmation HTS to Identify Inhibitors of Platelet Dense Granule Release. [Related pubchem assays: 1663 (Primary HTS), 1678 (Summary of Project)]; assay type: functional
[3] = CAL PDZ domain peptide-binding inhibitors, dose response, biochemical, fluorescence polarization, untagged CAL PDZ, cherry-pick, set 2 (AID 602254); assay type: functional
[4] = target: T1, Melanocortin receptor 4 (Homo sapiens, UniProt P32245); assay: MC4R antagonist potency on cAMP, dose response, cell-based, TR-FRET, biased antagonists (AID 602298); assay type: functional;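 further: antagonist potency against agonist-stimulated cAMP production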
[5] = nonselective inhibitors of cellular cAMP signaling, dose response, counter-screen for MC4R biased antagonist project, cell-based, TR-FRET cAMP detection (AID 602305); assay type: functional;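 further: U2OS cells stimulated with forskolin near its EC80 as the cAMP inducer; potency is for inhibition of forskolin-stimulated cAMP signaling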
[6] = target: Heat shock protein HSP 90-alpha (Homo sapiens, UniProt P07900); assay type: functional, organism-based
[7] = target: T1, Melanocortin receptor 4; assay type: functional, cell-based
[8] = target: 26S proteasome non-ATPase regulatory subunit 14 (Homo sapiens, UniProt O00487); assay: inhibition of proteasome subunit RPN11 – biochemical, fluorescence polarization, uHTS hits, confirmation (AID 602368); assay type: functional
[9] = target: 72 kDa type IV collagenase (Homo sapiens, UniProt P08253); assay: Dose Response validation of uHTS RPN11 inhibitor hits using a MMP-2 Fluorescence assay.; assay type: functional
[10] = target: Prothrombin (Bos taurus, UniProt P00735); assay: thrombin inhibition, dose response, biochemical, fluorescence polarization, uHTS hits (AID 602369); assay type: functional
[11] = HeLa cell cytotoxicity, dose response, cytotoxicity control for MgcRacGAP inhibitor project (AID 624300); assay type: functional
[12] = target: T2, Rac GTPase-activating protein 1 (Homo sapiens, UniProt Q9H0H5); assay: MgcRacGAP GTPase-activating activity inhibitors, confirmation, biochemical, ADP Hunter fluorescence, primary and confirmatory (AID 624330); assay type: functional
T2 sequence (Q9H0H5 whole entry): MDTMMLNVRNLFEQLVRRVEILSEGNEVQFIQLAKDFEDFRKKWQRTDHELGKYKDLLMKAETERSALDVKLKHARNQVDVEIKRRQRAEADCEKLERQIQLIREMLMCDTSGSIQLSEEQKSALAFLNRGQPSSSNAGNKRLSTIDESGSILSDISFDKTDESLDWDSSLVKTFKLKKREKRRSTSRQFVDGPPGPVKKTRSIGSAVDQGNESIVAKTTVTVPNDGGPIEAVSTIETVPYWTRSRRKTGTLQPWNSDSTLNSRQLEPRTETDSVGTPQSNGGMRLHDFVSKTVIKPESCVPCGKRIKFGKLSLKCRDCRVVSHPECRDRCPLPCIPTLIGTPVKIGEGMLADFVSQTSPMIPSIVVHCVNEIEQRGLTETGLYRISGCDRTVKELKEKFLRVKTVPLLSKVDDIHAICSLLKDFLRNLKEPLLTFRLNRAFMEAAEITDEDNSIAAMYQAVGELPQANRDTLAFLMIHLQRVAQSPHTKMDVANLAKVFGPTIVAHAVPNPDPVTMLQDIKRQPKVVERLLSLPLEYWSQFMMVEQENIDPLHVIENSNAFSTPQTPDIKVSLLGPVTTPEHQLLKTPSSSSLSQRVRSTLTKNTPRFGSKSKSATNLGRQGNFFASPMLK

[13] = target: T3, DNA repair protein RAD52 homolog (Homo sapiens, UniProt P43351); assay type: functional, biochemical
T3 sequence (P43351 whole entry): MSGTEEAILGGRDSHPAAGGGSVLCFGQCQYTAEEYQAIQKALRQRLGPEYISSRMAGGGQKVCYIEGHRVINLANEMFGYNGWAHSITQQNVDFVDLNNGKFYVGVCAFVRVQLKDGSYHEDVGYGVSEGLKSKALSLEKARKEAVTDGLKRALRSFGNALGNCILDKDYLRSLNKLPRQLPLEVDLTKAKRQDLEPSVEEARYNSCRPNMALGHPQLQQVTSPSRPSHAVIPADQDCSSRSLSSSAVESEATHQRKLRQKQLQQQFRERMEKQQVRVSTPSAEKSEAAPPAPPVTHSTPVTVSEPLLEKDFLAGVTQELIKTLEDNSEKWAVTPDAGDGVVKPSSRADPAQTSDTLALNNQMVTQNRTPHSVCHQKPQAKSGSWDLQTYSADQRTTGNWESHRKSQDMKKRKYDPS

[14] = target: T4, Caspase-3 (Homo sapiens, UniProt P42574); assay: caspase-3 inhibitors as off-family protease, SAR follow-up, selectivity assay for SENP protease inhibitor project, biochemical, luminescence, set 2 (AID 588599); assay type: functional
T4 sequence (P42574 whole entry): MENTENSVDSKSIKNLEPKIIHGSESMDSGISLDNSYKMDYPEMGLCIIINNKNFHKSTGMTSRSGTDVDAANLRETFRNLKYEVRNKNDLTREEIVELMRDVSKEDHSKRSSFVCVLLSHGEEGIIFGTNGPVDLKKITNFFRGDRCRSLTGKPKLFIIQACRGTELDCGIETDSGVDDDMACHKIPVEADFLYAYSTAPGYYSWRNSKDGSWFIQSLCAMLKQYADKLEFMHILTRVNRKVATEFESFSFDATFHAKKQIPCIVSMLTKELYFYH

[15] = target: T5, Sentrin-specific protease 8 (Homo sapiens, UniProt Q96LD8); assay: SENP8 protease inhibitors, SAR follow-up, biochemical, luminescence, set 2 (AID 588601); assay type: functional
T5 sequence (Q96LD8 whole entry): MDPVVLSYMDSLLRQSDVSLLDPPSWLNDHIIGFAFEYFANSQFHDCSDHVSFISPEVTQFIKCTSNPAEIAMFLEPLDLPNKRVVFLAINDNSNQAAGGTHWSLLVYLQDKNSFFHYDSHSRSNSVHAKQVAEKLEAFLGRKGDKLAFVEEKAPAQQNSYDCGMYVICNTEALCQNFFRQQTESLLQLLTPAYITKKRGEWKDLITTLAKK

[16] = target: T6, Sentrin-specific protease 7 (Homo sapiens, UniProt Q9BQF6); assay: SENP7 protease inhibitors, SAR follow-up, biochemical, luminescence, set 2 (AID 588600); assay type: functional
T6 sequence (Q9BQF6 whole entry): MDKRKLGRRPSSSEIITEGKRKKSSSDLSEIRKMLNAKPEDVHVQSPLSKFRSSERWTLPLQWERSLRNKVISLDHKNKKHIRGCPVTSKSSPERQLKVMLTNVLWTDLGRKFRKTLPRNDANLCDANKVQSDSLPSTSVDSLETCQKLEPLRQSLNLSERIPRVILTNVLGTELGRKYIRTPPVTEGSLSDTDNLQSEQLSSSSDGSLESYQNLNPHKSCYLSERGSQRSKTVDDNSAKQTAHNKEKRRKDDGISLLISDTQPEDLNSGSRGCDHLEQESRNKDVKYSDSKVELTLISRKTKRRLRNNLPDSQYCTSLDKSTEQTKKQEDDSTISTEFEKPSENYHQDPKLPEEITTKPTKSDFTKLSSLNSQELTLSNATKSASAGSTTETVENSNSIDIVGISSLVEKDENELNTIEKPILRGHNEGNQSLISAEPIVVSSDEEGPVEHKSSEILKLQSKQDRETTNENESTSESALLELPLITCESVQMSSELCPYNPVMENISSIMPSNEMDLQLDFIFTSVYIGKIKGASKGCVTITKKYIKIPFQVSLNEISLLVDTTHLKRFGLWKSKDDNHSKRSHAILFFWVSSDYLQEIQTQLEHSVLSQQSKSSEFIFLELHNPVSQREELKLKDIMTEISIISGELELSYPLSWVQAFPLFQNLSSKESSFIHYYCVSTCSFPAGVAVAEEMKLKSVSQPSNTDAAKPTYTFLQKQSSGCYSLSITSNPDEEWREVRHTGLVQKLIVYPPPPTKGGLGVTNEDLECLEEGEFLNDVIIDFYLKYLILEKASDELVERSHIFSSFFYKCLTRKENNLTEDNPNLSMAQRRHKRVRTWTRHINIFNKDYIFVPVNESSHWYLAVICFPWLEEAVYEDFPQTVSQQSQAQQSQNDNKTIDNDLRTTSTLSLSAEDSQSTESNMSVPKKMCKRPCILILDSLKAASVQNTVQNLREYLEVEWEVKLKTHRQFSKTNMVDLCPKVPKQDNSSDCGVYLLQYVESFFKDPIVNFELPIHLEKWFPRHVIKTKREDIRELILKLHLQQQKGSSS

[17] = target: T7, Sentrin-specific protease 6 (Homo sapiens, UniProt Q9GZR1); assay: SENP6 protease inhibitors, SAR follow-up, biochemical, luminescence, set 2 (AID 588598); assay type: functional
T7 sequence (Q9GZR1 whole entry): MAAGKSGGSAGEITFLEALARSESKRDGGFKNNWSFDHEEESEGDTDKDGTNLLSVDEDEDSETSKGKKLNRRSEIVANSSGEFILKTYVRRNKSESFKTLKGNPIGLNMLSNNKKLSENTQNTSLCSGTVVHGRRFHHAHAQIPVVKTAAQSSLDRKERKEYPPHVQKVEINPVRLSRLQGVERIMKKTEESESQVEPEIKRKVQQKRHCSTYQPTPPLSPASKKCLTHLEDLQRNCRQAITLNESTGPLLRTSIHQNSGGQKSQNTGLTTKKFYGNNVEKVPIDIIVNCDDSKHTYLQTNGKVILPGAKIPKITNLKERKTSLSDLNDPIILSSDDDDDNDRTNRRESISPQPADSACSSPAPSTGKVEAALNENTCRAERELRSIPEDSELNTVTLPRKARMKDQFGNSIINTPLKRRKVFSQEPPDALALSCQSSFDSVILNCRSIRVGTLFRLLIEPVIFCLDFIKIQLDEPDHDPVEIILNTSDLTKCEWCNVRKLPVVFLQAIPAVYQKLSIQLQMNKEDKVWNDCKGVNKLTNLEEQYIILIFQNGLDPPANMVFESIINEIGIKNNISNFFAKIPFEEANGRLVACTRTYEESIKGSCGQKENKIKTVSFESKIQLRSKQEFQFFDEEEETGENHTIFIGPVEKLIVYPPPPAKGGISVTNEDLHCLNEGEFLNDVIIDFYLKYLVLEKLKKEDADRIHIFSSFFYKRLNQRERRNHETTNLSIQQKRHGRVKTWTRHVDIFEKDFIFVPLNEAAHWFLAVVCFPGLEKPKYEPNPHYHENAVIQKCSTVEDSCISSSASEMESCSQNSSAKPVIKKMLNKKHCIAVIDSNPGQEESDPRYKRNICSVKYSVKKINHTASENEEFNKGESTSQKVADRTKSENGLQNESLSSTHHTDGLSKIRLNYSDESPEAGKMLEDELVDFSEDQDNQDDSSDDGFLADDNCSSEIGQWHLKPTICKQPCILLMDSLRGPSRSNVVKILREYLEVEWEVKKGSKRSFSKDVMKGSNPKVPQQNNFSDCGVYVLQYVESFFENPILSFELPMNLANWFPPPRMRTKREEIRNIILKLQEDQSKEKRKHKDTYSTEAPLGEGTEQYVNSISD

T1 sequence (P32245 whole entry): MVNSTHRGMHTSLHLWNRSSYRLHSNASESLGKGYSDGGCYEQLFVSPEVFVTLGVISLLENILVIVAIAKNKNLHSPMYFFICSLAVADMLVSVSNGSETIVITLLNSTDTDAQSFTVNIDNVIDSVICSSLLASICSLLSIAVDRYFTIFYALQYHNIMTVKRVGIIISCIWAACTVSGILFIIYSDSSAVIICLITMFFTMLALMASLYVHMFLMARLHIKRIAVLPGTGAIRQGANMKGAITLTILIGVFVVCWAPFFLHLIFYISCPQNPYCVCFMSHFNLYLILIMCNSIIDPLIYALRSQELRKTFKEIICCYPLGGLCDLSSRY
Chain of 26S proteasome non-ATPase regulatory subunit 14 (O00487 whole entry): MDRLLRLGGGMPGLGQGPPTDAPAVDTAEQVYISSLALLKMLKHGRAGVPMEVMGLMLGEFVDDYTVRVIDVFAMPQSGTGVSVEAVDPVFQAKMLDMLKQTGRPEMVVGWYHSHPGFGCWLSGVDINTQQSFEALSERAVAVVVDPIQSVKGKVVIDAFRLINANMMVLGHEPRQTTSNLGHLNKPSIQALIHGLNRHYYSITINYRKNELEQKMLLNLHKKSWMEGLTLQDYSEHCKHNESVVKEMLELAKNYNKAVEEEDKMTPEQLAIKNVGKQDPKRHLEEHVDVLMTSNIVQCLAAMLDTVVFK
Chain of 72 kDa type IV collagenase (P08253 whole entry): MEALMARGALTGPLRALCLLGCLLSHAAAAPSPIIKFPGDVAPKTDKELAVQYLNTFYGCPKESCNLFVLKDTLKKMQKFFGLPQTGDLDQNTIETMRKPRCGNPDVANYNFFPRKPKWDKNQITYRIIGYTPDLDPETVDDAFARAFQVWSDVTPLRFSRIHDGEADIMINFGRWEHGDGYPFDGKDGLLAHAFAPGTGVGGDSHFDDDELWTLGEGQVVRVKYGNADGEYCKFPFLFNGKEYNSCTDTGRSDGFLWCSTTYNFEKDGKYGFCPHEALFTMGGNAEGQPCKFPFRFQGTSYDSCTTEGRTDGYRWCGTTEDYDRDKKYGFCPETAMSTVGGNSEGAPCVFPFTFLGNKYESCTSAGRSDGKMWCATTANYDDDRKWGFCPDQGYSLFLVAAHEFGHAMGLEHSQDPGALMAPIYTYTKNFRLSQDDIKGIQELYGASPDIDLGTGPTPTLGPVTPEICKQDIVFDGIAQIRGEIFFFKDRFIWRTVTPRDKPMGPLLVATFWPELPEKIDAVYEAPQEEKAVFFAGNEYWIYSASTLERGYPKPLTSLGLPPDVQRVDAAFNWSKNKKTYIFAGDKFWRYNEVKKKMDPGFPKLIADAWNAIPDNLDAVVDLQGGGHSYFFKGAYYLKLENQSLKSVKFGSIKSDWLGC
Chain of Luciferin 4-monooxygenase (P08659 whole entry): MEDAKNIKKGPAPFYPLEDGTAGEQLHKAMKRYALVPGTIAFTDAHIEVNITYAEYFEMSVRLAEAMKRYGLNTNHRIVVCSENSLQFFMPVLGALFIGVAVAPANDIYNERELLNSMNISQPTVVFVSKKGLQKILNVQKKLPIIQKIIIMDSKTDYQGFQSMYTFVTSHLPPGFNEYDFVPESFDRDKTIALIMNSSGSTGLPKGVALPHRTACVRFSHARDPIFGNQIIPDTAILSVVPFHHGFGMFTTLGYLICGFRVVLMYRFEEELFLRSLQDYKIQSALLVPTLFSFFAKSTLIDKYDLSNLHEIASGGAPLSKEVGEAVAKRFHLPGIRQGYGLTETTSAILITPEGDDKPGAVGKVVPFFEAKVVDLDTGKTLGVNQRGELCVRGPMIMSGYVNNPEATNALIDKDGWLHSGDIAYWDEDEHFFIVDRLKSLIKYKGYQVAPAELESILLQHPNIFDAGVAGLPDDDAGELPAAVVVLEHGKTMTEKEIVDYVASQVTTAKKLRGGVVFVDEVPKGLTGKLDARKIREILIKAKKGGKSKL

SMILES | IC50 [4] | IC50 [5] | IC50 [14] | IC50 [15] | IC50 [16] | IC50 [17] | further results
COC(=O)c1cc(S(=O)(=O)NCCc2ccc(SC)cc2)c[nH]1 | – | – | – | – | – | – | EC50 [1]: > 112 µM (not active); EC50 [2]: > 112 µM (not active); AC50 [3]: 112 µM (active)
CCOC(=O)c1sc(NC(=O)CCN2CCN(CC)CC2)c(C(=O)OCC)c1C | > 64.6 µM (inactive) | > 64.6 µM (inactive) | – | – | – | – | –
CCCCCCCCCCCCCCCC[N+](C)(C)Cc1ccc(F)cc1 | 13.7 µM (inactive) | 59.8 µM (inactive) | – | – | – | – | AC50 [6]: 4.51 µM (active); EC50 [7]: > 89.2 µM (inactive); IC50 [8]: 61.1 µM (active); IC50 [9]: 91.8 µM (active); IC50 [10]: 37.4 µM (active); CC50 [11]: 15.7 µM (active); IC50 [12]: 83.4 µM (active); AC50 [13]: 5.28 µM (active)
COc1ccc(/C=C(/C#N)c2nc(-c3ccccc3C)no2)cc1O | – | – | > 99 µM (inactive) | > 99 µM (inactive) | > 99 µM (inactive) | > 99 µM (inactive) | –
Cc1[nH]c2ccccc2c1C(=O)C(=O)NCCn1ccc2ccccc21 | – | – | > 99 µM (inactive) | > 99 µM (inactive) | > 99 µM (inactive) | > 99 µM (inactive) | –
